This is an account of results in ChEMBL document CHEMBL1201862, “PubChem BioAssay data set” (2004).

One assay concerns the target Integrin alpha-L (Mus musculus, UniProt P24063). Description: modulators of CD8 T cell-vesicle binding, dose response, powder samples, mouse 2C CD8+ cells (AID 504565). The format is functional.
Assay [1] can be described thus: Shn3 3'UTR reporter inhibitors, dose response, cell-based, Clone20 osteoblasts, firefly luciferase, cherry-picked (AID 624132).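 Further: firefly luciferase luminescence from reporter carrying the Shn3 3'UTR in osteoblasts.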 Type of assay: functional.
For assay [2], the target named is T1, Tyrosine-protein phosphatase non-receptor type 7 (Homo sapiens, UniProt P35236).
T1 sequence (P35236 whole entry): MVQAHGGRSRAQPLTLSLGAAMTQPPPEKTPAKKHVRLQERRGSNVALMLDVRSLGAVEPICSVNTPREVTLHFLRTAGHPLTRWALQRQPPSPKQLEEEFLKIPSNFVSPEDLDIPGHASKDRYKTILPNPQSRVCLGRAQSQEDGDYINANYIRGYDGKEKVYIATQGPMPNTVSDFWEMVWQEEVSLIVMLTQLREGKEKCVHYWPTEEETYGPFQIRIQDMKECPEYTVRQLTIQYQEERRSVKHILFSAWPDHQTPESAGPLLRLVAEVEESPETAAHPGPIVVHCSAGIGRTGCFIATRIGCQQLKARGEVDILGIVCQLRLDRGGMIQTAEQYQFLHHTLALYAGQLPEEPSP
In words: HePTP (PTPN7) phosphatase inhibitor potency, SAR follow-up, biochemical, set 2 (AID 449736). Type of assay: functional.

Assay [3] in a line: Counterscreen for AddAB inhibitors: absorbance-based bacterial cell-based high throughput dose response assay for inhibitors of bacterial viability. [Related pubchem assays (depositor defined):AID435030, AID449728, AID449731, AID488942, AID488955, AID488956]. The format is functional. In general terms: A counterscreen serves to expose hits that act by an unwanted route or on another target.

In a further assay the target is Mucolipin-3 (Homo sapiens, UniProt Q8TDD5). Description: Fluorescence counterscreen assay for […] agonists: dose response cell-based high-throughput screening assay to identify agonists of the transient receptor potential channel ML3 (TRPML3). [Related pubchem assays: 1424, 1448 ]. Type of assay: functional.
Sequence of Mucolipin-3 (Q8TDD5 whole entry): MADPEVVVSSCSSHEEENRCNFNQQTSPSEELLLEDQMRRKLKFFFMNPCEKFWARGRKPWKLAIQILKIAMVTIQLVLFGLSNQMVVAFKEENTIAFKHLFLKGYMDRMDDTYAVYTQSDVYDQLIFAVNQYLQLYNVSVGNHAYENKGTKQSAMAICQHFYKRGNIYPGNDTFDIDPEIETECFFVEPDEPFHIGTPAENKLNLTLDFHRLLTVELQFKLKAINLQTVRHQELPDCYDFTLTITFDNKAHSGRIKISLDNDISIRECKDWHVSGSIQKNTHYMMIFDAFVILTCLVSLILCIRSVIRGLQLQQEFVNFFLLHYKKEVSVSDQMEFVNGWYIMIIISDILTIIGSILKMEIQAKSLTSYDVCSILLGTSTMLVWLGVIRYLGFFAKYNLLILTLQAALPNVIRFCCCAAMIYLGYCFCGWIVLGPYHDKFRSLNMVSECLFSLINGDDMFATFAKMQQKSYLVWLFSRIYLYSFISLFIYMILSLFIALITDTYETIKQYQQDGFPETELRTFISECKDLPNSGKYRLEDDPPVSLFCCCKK
The nature of assay [4]: decrease of PhoP-driven GFP reporter signal, S. Typhimurium, dose response, PhoP regulon inhibitor project, purified and synthesized compounds, set 2 (AID 2831). Type of assay: functional.
The target in assay [5] is T2, Short transient receptor potential channel 4 (Mus musculus, UniProt Q9QUQ5).
T2 sequence (Q9QUQ5 whole entry): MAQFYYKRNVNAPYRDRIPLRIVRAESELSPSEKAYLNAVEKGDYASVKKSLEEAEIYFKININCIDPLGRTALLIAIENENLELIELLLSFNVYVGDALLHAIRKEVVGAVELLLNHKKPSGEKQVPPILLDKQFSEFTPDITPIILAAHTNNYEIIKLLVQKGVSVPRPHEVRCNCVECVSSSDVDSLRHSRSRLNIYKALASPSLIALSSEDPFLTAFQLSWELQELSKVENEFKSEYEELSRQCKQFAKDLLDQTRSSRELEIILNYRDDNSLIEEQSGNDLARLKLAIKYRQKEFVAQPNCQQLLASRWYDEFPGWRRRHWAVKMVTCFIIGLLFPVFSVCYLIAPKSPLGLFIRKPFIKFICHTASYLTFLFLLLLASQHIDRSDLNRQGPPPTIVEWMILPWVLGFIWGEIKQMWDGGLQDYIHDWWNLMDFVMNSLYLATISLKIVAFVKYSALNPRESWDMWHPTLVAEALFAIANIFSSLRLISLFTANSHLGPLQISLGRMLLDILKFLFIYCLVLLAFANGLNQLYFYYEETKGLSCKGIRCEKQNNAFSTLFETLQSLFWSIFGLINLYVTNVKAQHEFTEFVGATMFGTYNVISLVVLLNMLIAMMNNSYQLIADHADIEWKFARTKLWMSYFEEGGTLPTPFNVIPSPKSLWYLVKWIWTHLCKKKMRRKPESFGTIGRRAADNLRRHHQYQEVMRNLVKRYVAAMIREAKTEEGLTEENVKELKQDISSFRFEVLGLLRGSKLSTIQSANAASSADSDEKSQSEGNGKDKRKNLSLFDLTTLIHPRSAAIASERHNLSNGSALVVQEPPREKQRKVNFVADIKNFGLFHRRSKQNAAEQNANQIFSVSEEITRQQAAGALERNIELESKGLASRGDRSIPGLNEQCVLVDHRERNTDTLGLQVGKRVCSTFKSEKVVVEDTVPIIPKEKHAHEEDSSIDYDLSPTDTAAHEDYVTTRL
Description: mouse TRPC4 channel activators, dose response, cell-based, HEK293 TRPC4/mu-opioid, Fluo-4 calcium (AID 434937). Type of assay: functional.

In a further assay the target is Exodeoxyribonuclease V (Escherichia coli (strain K12), UniProt P04993+P07648+P08394). Description: E. coli RecBCD inhibitors, dose response, counter-screen for AddAB inhibitor project, absorbance, V66 E. coli, mutant T4 phage (AID 492957). Type of assay: functional, cell-based, Escherichia coli str. K-12 substr. MG1655.
The target of a further assay is Ion channel NompC (Danio rerio, UniProt Q7T1G6). In words: Dose response cell-based high-throughput screening assay for agonists of the transient receptor potential channel N1 (TRPN1). [Related pubchem assays (depositor defined):AID1424, AID1448]. Type of assay: functional.
Sequence of Ion channel NompC (Q7T1G6 whole entry): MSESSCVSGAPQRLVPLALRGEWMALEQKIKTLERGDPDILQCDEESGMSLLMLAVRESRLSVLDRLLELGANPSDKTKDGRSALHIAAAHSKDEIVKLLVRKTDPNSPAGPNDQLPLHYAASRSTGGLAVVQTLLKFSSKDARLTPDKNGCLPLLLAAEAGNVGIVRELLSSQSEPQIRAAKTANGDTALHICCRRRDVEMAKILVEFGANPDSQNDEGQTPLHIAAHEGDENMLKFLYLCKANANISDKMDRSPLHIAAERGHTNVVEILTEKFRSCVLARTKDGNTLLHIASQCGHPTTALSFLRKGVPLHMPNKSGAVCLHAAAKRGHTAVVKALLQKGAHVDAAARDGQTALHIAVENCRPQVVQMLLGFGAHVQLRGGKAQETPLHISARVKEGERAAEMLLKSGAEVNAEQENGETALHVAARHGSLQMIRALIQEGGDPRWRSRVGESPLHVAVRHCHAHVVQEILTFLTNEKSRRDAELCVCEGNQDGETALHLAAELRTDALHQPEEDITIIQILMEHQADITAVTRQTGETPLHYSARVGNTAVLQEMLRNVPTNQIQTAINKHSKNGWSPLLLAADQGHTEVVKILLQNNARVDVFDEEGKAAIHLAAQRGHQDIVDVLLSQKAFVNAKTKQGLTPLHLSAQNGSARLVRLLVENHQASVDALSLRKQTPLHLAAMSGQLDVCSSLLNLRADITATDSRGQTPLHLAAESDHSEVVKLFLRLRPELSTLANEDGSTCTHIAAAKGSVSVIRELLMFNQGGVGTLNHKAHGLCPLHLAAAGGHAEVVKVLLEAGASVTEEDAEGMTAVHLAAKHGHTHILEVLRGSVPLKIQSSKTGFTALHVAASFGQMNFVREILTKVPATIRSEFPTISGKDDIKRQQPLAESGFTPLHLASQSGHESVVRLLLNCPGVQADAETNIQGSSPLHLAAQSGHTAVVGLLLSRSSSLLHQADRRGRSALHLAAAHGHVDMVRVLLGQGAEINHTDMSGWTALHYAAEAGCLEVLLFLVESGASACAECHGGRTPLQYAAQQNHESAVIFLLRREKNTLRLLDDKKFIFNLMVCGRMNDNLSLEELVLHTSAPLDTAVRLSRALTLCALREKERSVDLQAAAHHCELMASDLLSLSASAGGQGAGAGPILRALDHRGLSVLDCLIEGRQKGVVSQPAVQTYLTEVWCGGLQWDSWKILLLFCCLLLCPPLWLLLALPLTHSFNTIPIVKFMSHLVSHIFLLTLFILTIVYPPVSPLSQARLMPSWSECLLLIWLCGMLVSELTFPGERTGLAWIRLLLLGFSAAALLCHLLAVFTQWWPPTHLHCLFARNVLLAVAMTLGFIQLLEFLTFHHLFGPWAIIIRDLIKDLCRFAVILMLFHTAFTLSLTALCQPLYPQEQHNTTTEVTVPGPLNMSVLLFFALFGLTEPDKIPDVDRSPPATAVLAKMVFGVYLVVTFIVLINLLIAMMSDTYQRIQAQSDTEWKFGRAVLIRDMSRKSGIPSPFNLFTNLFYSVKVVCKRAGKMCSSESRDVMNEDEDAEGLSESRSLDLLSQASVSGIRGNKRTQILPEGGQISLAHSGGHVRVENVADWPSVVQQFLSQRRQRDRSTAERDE
A further assay has as its system Vero. Description: cells. The following applies: Chlorocebus sabaeus. Type of assay: functional.

Calls of active or inactive are those of the source. Bounds are passed on as bounds.

Sequence of Integrin alpha-L (P24063 whole entry): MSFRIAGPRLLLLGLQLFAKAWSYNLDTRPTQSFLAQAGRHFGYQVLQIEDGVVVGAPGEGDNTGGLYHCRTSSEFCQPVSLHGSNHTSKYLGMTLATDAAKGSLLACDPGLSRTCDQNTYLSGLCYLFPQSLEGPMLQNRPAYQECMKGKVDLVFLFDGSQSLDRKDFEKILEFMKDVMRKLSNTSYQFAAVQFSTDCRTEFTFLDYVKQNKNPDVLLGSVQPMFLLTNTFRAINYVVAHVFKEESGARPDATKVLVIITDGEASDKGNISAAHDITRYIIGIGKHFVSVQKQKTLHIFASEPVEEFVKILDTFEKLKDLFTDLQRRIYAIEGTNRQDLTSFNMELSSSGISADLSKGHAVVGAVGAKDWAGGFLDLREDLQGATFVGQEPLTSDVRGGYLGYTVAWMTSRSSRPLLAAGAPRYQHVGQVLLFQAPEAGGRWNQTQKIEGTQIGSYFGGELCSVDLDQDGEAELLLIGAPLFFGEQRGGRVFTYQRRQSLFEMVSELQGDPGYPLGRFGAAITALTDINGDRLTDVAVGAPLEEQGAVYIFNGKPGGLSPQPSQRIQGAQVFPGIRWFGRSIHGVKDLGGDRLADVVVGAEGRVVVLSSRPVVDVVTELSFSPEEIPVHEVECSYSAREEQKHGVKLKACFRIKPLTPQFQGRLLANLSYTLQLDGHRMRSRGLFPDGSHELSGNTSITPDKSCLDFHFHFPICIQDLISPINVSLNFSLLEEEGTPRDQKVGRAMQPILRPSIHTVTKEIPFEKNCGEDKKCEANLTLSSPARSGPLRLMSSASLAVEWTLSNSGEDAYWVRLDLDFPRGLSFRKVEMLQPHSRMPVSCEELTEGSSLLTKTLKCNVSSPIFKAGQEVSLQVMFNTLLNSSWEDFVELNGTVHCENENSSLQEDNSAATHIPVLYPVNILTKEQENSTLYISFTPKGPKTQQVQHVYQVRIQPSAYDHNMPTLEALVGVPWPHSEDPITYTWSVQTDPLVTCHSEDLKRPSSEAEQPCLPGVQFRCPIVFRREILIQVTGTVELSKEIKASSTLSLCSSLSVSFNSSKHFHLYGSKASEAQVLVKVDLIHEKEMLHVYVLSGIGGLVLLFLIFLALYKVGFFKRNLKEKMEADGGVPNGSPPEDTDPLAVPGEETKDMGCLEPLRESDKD

For `CN(CC(=O)Nc1cc(S(=O)(=O)N2CCCC2)ccc1Cl)Cc1ccc2c(c1)OCO2`, the EC50 at Integrin alpha-L is 0.197 µM (active). In [1], the AC50 was 13.1 µM (active).
On to `Cc1ccccc1-n1c(N)c(C(=O)N2CCOCC2)sc1=S`, for which the IC50 in assay [2] was > 100 µM (inactive).
Regarding `O=C(Nc1nnc(-c2cccs2)o1)c1cccc(C(F)(F)F)c1`, the IC50 in assay [3] was > 39.5 µM (inactive); in assay [4], > 125 µM (active); at Exodeoxyribonuclease V, 68.2 µM (inactive). The results for the EC50 (on Mucolipin-3; in assay [5]; on Ion channel NompC) were 4.5 µM (active), 11.9 µM (active) and 3.33 µM (active), respectively. Moreover, the 50% cytotoxic concentration (CC50) with Vero is > 25 µM (active).

The term EC50 denotes the concentration giving half of the maximal effect. As usually defined, the AC50 is the midpoint of the concentration-response curve, whichever way the signal moves. One may read the IC50 as the midpoint of a concentration-inhibition curve. A word on the CC50: it is the concentration that lowers cell viability or growth by half.
